Source: US10479780B2, “Aminopyrazole derivatives” (Chugai Seiyaku Kabushiki Kaisha, priority 2015, dated 2019)

Columns and labels:
Assay type in all cases: biochemical
human Yes1 enzyme = target: T1, human Yes1 enzyme (Homo sapiens, UniProt P07947); test: Yes1 enzyme inhibitory activity (time-resolved fluorometry, biotinylated peptide phosphorylation); details: biotinylated peptide phosphorylation, read-out: YES_IC50
T1 construct: made in house
How it was run: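 Inhibition was expressed against a compound-free control to give IC50, using TR-FRET read-out (Eu-cryptate anti-pTyr antibody, streptavidin-XL665).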

human Src enzyme = target: T2, human Src enzyme (Homo sapiens, UniProt P12931); test: Src enzyme inhibitory activity (time-resolved fluorometry, biotinylated peptide phosphorylation); details: biotinylated peptide phosphorylation, read-out: SRC_IC50
T2 construct: purchased Carna Biosciences, Inc. 08-173
How it was run: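 Compounds were tested for blocking tyrosine phosphorylation of a biotinylated peptide substrate by recombinant human Src. Phosphorylated product was quantified by time-resolved fluorometry using europium cryptate and XL665 conjugates, and IC50 was calculated against the compound-free control.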

human Lck enzyme = target: T3, human Lck enzyme (Homo sapiens, UniProt P06239); test: Lck enzyme inhibitory activity (time-resolved fluorometry, biotinylated peptide phosphorylation); details: biotinylated peptide phosphorylation, read-out: LCK_IC50
T3 construct: purchased Carna Biosciences, Inc. 08-170
How it was run: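 Readout pairs a europium cryptate-labelled anti-phosphotyrosine antibody with XL665-streptavidin, measured by time-resolved fluorescence. IC50 derived from percent inhibition against untreated controls.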

T1 sequence (P07947 whole entry): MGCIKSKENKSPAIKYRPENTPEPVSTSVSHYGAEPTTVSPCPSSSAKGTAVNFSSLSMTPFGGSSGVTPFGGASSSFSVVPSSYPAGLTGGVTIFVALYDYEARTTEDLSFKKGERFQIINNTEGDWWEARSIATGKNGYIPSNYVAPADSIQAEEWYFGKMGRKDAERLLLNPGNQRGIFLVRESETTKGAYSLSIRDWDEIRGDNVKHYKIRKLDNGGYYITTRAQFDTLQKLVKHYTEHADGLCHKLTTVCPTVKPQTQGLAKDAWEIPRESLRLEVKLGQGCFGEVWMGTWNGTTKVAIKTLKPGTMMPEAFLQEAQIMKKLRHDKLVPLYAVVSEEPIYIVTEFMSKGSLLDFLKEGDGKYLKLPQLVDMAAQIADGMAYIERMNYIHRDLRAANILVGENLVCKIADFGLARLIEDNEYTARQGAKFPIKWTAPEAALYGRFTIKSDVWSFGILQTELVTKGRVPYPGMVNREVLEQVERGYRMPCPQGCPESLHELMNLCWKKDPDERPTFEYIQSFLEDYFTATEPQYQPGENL
T3 sequence (P06239 whole entry): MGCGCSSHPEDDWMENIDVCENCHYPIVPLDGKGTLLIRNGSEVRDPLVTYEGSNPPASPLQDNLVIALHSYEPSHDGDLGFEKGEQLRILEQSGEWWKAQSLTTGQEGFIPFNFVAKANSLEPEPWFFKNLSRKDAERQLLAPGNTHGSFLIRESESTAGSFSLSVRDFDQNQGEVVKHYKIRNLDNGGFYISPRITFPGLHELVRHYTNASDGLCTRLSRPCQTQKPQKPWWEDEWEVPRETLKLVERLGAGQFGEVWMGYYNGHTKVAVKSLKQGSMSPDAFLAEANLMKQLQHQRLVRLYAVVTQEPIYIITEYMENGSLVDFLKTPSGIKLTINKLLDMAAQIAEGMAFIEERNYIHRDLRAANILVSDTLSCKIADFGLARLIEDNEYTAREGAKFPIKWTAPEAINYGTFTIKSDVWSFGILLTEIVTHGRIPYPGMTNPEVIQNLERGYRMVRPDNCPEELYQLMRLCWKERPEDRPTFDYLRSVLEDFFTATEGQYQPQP
T2 sequence (P12931 whole entry): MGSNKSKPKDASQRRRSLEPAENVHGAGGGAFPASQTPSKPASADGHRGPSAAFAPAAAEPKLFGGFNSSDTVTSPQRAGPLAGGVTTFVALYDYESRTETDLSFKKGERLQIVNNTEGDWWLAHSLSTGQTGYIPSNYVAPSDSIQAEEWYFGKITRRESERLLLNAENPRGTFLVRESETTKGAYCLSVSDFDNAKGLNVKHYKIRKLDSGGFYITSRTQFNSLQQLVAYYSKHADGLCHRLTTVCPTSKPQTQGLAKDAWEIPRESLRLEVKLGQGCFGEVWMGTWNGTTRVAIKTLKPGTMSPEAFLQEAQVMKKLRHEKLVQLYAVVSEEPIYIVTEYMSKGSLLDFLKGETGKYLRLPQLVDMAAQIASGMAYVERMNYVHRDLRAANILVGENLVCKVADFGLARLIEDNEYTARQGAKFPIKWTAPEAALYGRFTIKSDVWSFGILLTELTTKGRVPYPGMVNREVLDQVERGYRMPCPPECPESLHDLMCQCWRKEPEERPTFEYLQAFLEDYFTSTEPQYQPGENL

Row | SMILES | IC50 (human Yes1 enzyme) | IC50 (human Src enzyme) | IC50 (human Lck enzyme)
1 | Cc1cc(Oc2ccccc2F)ccc1-n1ncc(C(=O)c2cc3cc(OCCN4[C@@H]5CC[C@H]4COC5)c(NS(C)(=O)=O)cc3[nH]2)c1N [Example 4-24-039, N-[2-[5-amino-1-[4-(2-fluorophenoxy)-2-methylphenyl]pyrazole-4-carbonyl]-5-[2-[(1S,5R)-3-oxa-8-azabicyclo[3.2.1]octan-8-yl]ethoxy]-1H-indol-6-yl]methanesulfonamide] | 0.46 nM | 8.3 nM | 2.8 nM
2 | Cc1cc(Oc2ccccc2F)ncc1-n1ncc(C(=O)c2cc3cc(OCC(F)F)c(N4CCCS4(=O)=O)cc3[nH]2)c1N [Example 4-25-001, {5-amino-1-[6-(2-fluorophenoxy)-4-methylpyridin-3-yl]pyrazol-4-yl}-[5-(2,2-difluoroethoxy)-6-(1,1-dioxo-1,2-thiazolidin-2-yl)-1H-indol-2-yl]methanone] | 1.6 nM | 29 nM | 9.6 nM
3 | Cc1cc(Oc2ccccc2F)ccc1-n1ncc(C(=O)c2cc3cc(OC(F)F)c(N4CCCS4(=O)=O)cc3[nH]2)c1N [Example 4-25-002, [5-amino-1-[4-(2-fluorophenoxy)-2-methylphenyl]pyrazol-4-yl]-[5-(difluoromethoxy)-6-(1,1-dioxo-1,2-thiazolidin-2-yl)-1H-indol-2-yl]methanone] | 3.1 nM | 37 nM | 15 nM
4 | Cc1cc(Oc2ccccc2F)cc(F)c1-n1ncc(C(=O)c2cc3cc(OC(F)F)c(N4CCCS4(=O)=O)cc3[nH]2)c1N [Example 4-25-003, [5-amino-1-[2-fluoro-4-(2-fluorophenoxy)-6-methylphenyl]pyrazol-4-yl]-[5-(difluoromethoxy)-6-(1,1-dioxo-1,2-thiazolidin-2-yl)-1H-indol-2-yl]methanone] | 3.9 nM | 130 nM | 19 nM
5 | Cc1cc(Oc2ccccc2F)ncc1-n1ncc(C(=O)c2cc3cc(OC(F)F)c(N4CCCS4(=O)=O)cc3[nH]2)c1N [Example 4-25-004, [5-amino-1-[6-(2-fluorophenoxy)-4-methylpyridin-3-yl]pyrazol-4-yl]-[5-(difluoromethoxy)-6-(1,1-dioxo-1,2-thiazolidin-2-yl)-1H-indol-2-yl]methanone] | 1 nM | 48 nM | 8.7 nM
6 | Cc1cc(Oc2c(F)cccc2F)ncc1-n1ncc(C(=O)c2cc3cc(OC(F)F)c(N4CCCS4(=O)=O)cc3[nH]2)c1N [Example 4-25-005, [5-amino-1-[6-(2,6-difluorophenoxy)-4-methylpyridin-3-yl]pyrazol-4-yl]-[5-(difluoromethoxy)-6-(1,1-dioxo-1,2-thiazolidin-2-yl)-1H-indol-2-yl]methanone] | 3.9 nM | 53 nM | 11 nM
7 | Cc1cc(Oc2ccccc2F)ccc1-n1ncc(C(=O)c2cc3cc(N4CCOCC4)c(N4CCCS4(=O)=O)cc3[nH]2)c1N [Example 4-25-006, [5-amino-1-[4-(2-fluorophenoxy)-2-methylphenyl]pyrazol-4-yl]-[6-(1,1-dioxo-1,2-thiazolidin-2-yl)-5-morpholin-4-yl-1H-indol-2-yl]methanone] | 1.1 nM | 18 nM | 9 nM
8 | Cc1cc(Oc2ccccc2F)ncc1-n1ncc(C(=O)c2cc3cc(N4CCOCC4)c(N4CCCS4(=O)=O)cc3[nH]2)c1N [Example 4-25-007, [5-amino-1-[6-(2-fluorophenoxy)-4-methylpyridin-3-yl]pyrazol-4-yl]-[6-(1,1-dioxo-1,2-thiazolidin-2-yl)-5-morpholin-4-yl-1H-indol-2-yl]methanone] | 1.1 nM | 23 nM | 5.2 nM
9 | Cc1cc(Oc2c(F)cccc2F)ncc1-n1ncc(C(=O)c2cc3cc(N4CCOCC4)c(N4CCCS4(=O)=O)cc3[nH]2)c1N [Example 4-25-008, [5-amino-1-[6-(2,6-difluorophenoxy)-4-methylpyridin-3-yl]pyrazol-4-yl]-[6-(1,1-dioxo-1,2-thiazolidin-2-yl)-5-morpholin-4-yl-1H-indol-2-yl]methanone] | 1.5 nM | 22 nM | 8.2 nM
10 | Cc1cc(Oc2ccccc2F)ccc1-n1ncc(C(=O)c2cc3cc(OCC(F)F)c(N4CCCS4(=O)=O)cc3[nH]2)c1N [Example 4-25-009, [5-amino-1-[4-(2-fluorophenoxy)-2-methylphenyl]pyrazol-4-yl]-[5-(2,2-difluoroethoxy)-6-(1,1-dioxo-1,2-thiazolidin-2-yl)-1H-indol-2-yl]methanone] | 3.5 nM | 32 nM | 18 nM
11 | Cc1cc(Oc2ccccc2F)cc(F)c1-n1ncc(C(=O)c2cc3cc(OCC(F)F)c(N4CCCS4(=O)=O)cc3[nH]2)c1N [Example 4-25-010, [5-amino-1-[2-fluoro-4-(2-fluorophenoxy)-6-methylphenyl]pyrazol-4-yl]-[5-(2,2-difluoroethoxy)-6-(1,1-dioxo-1,2-thiazolidin-2-yl)-1H-indol-2-yl]methanone] | 1.7 nM | 16 nM | 7.4 nM
12 | Cc1cc(Oc2c(F)cccc2F)ncc1-n1ncc(C(=O)c2cc3cc(OCC(F)F)c(N4CCCS4(=O)=O)cc3[nH]2)c1N [Example 4-25-011, [5-amino-1-[6-(2,6-difluorophenoxy)-4-methylpyridin-3-yl]pyrazol-4-yl]-[5-(2,2-difluoroethoxy)-6-(1,1-dioxo-1,2-thiazolidin-2-yl)-1H-indol-2-yl]methanone] | 1.4 nM | 11 nM | 4.1 nM
13 | Cc1cc(Oc2ccccc2F)ccc1-n1ncc(C(=O)c2cc3cc(OCCN4CCOCC4)c(N4CCCS4(=O)=O)cc3[nH]2)c1N [Example 4-25-012, [5-amino-1-[4-(2-fluorophenoxy)-2-methylphenyl]pyrazol-4-yl]-[6-(1,1-dioxo-1,2-thiazolidin-2-yl)-5-(2-morpholin-4-ylethoxy)-1H-indol-2-yl]methanone] | 0.35 nM | 3 nM | 2.1 nM

Other lines, results leading:

Row | IC50 (human Yes1 enzyme) | IC50 (human Src enzyme) | IC50 (human Lck enzyme) | SMILES
14 | 1 nM | 16 nM | 4 nM | Cc1cc(Oc2ccccc2F)ncc1-n1ncc(C(=O)c2cc3cc(OCC(F)F)c(N4CCCC4=O)cc3[nH]2)c1N [Example 4-25-013, 1-{2-{5-amino-1-[6-(2-fluorophenoxy)-4-methylpyridin-3-yl]pyrazole-4-carbonyl}-5-(2,2-difluoroethoxy)-1H-indol-6-yl}pyrrolidin-2-one]
15 | 1.1 nM | 26 nM | 2.2 nM | Cc1cc(Oc2ccccc2F)ncc1-n1ncc(C(=O)c2cc3cc(OC(F)F)c(N4CCCC4=O)cc3[nH]2)c1N [Example 4-25-014, 1-[2-[5-amino-1-[6-(2-fluorophenoxy)-4-methylpyridin-3-yl]pyrazole-4-carbonyl]-5-(difluoromethoxy)-1H-indol-6-yl]pyrrolidin-2-one]
16 | 4.9 nM | 44 nM | 8.2 nM | Cc1cc(Oc2ccccc2F)cc(F)c1-n1ncc(C(=O)c2cc3cc(OC(F)F)c(N4CCCC4=O)cc3[nH]2)c1N [Example 4-25-015, 1-[2-[5-amino-1-[2-fluoro-4-(2-fluorophenoxy)-6-methylphenyl]pyrazole-4-carbonyl]-5-(difluoromethoxy)-1H-indol-6-yl]pyrrolidin-2-one]
17 | 0.48 nM | 13 nM | 1.5 nM | Cc1cc(Oc2ccccc2F)ncc1-n1ncc(C(=O)c2cc3cc(OCC(F)F)c(N4CCOC4=O)cc3[nH]2)c1N [Example 4-25-016, 3-{2-{5-amino-1-[6-(2-fluorophenoxy)-4-methylpyridin-3-yl]pyrazole-4-carbonyl}-5-(2,2-difluoroethoxy)-1H-indol-6-yl}-1,3-oxazolidin-2-one]
18 | 1.3 nM | 6.4 nM | 2.3 nM | Cc1cc(Oc2ccccc2F)cc(F)c1-n1ncc(C(=O)c2cc3cc(OCC(F)F)c(N4CCOC4=O)cc3[nH]2)c1N [Example 4-25-017, 3-[2-[5-amino-1-[2-fluoro-4-(2-fluorophenoxy)-6-methylphenyl]pyrazole-4-carbonyl]-5-(2,2-difluoroethoxy)-1H-indol-6-yl]-1,3-oxazolidin-2-one]
19 | 0.72 nM | 20 nM | 1.7 nM | Cc1cc(Oc2ccccc2F)ncc1-n1ncc(C(=O)c2cc3cc(OC(F)F)c(N4CCOC4=O)cc3[nH]2)c1N [Example 4-25-018, 3-[2-[5-amino-1-[6-(2-fluorophenoxy)-4-methylpyridin-3-yl]pyrazole-4-carbonyl]-5-(difluoromethoxy)-1H-indol-6-yl]-1,3-oxazolidin-2-one]
20 | 5.2 nM | 43 nM | 13 nM | Cc1cc(Oc2ccccc2F)cc(F)c1-n1ncc(C(=O)c2cc3cc(OC(F)F)c(N4CCOC4=O)cc3[nH]2)c1N [Example 4-25-019, 3-[2-[5-amino-1-[2-fluoro-4-(2-fluorophenoxy)-6-methylphenyl]pyrazole-4-carbonyl]-5-(difluoromethoxy)-1H-indol-6-yl]-1,3-oxazolidin-2-one]
21 | 1.2 nM | 13 nM | 2.3 nM | Cc1cc(Oc2ccccc2F)ncc1-n1ncc(C(=O)c2cc3cc(OCC(F)F)c(N4CCOCC4)cc3[nH]2)c1N [Example 4-25-020, {5-amino-1-[6-(2-fluorophenoxy)-4-methylpyridin-3-yl]pyrazol-4-yl}-[5-(2,2-difluoroethoxy)-6-morpholin-4-yl-1H-indol-2-yl]methanone]
22 | 2.1 nM | 16 nM | 4.6 nM | Cc1cc(Oc2ccccc2F)cc(F)c1-n1ncc(C(=O)c2cc3cc(OCC(F)F)c(N4CCOCC4)cc3[nH]2)c1N [Example 4-25-021, [5-amino-1-[2-fluoro-4-(2-fluorophenoxy)-6-methylphenyl]pyrazol-4-yl]-[5-(2,2-difluoroethoxy)-6-morpholin-4-yl-1H-indol-2-yl]methanone]
